In patent publication US6479531B1, “Gastrin and cholecystokinin receptor ligands” (James Black Foundation Limited, priority 1998, dated 2002):

Experiments:
gastrin receptor = target: T1, gastrin receptor (Rattus norvegicus, UniProt P30553); assay: gastrin antagonist activity in immature rat stomach assay (pentagastrin dose-response, acid secretion); settings: isolated immature rat stomach, cumulative pentagastrin dose-response curves, read-out: Gastrin pKb (converted)
T1 construct: The stomach was excised and flushed with ca. 1 ml of unbuffered physiological saline solution; from tissue; host or cells: isolated whole stomach of immature rats (ca. 21 days old)
T1 sequence (P30553 1-452): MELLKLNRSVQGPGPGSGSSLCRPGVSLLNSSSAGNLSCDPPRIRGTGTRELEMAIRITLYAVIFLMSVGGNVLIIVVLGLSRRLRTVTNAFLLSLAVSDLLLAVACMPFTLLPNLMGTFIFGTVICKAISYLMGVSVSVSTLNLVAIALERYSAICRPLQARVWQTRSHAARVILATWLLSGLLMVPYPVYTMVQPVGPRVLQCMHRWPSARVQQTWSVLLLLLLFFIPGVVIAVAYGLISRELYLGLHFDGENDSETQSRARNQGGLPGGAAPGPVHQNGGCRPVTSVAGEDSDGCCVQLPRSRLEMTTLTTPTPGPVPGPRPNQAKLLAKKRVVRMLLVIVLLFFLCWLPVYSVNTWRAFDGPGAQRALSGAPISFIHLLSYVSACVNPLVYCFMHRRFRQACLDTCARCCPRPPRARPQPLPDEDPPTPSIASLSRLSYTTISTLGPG
Method in brief: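 Gastrin antagonism was measured as the effect on cumulative pentagastrin dose-response curves of acid output, recorded by pH electrode in the perfusate of an excised immature rat stomach (ca. 21 days old). Test compound was placed in the serosal bath (37°, 3×10^−8 M 5-methylfurmethide) 60 min before pentagastrin.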

CCKA receptor = target: T2, CCKA receptor (Cavia porcellus, UniProt Q63931); assay: CCKA binding assay in guinea-pig pancreas membranes; settings: [125I]-CCK8(S) 200 pM, with 0.375 μM PD134,308, read-out: CCKA pKi (converted)
T2 construct: The pancreatata were removed from male guineau-pigs (200-300 g; Dunkin Hartley); from tissue; host or cells: pancreas membranes of male Dunkin Hartley guinea-pigs
T2 sequence (Q63931 1-430): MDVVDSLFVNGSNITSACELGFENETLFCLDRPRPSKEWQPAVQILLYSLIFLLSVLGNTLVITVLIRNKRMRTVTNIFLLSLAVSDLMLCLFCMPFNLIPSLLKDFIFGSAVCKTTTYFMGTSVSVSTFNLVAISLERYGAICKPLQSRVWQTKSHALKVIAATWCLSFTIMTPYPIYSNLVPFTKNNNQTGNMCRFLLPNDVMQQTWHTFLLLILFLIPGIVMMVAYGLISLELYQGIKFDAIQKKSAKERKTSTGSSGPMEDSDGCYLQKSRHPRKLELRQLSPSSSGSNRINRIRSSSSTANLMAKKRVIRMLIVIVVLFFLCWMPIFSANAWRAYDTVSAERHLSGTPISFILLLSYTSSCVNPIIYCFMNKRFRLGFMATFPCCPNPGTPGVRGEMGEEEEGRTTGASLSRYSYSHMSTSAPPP
Method: The compounds of certain examples were also tested in a CCKA binding assay as follows:
The pancreatata were removed from male guineau-pigs (200-300 g; Dunkin Hartley) and placed in ice-cold HEPES buffer (pH 7.2 @ 21±3° C.). The pancreatata were homogenised in 40 ml ice-cold HEPES buffer using a polytron (Brinkmann, PT10, setting 10) 4×1 second. The homogenate was centrifuged at 39,800 g for 15 min at 4° C. The supernatant was discarded and the pellet re-suspended using a Teflon-in-glass homogeniser in 20 volumes of fresh buffer and re-centrifuged as above. The final pellet was re-suspended using a Teflon-in-glass homogeniser to a tissue concentration of 1 mg.ml^−1 (original weight), and filtered through a 500 μm pore-size Nytex mesh.
The membranes (400 μl; containing 0.375 μM PD134,308) were incubated for 150 minutes at 21±3° C. in a final volume of 0.5 ml with HEPES buffer containing [^125I]-CCK8 (S) (50 μl; 200 pM) and competing compound. Total and non-specific binding of [^125I]-CCK8 (S) were defined using 50 μl of buffer and 50 μ of 100 nM L-364,718 respectively. The assay was terminated by rapid filtration through pre-soaked Whatman GF/B filters using a Brandell Cell Harvetser. The filters were washed (3×3 ml) with ice-cold 50 mM Tris HCl (pH 7.4 @ 4° C.) and bound radioactivity was determined by counting (1 min) in a gamma counter.

CCKB receptor = target: T3, CCKB receptor (Mus musculus, UniProt P56481); assay: CCKB receptor radioligand binding assay in mouse cortical membranes; settings: [125I]-CCK8(S) 200 pM, 150 min at 21±3°, read-out: CCKB pKi (converted)
T3 construct: The whole brains from male mice (CD1 22-25 g; Charles River) were removed; from tissue; host or cells: cerebral cortex membranes of male CD1 mice
T3 sequence (P56481 1-453): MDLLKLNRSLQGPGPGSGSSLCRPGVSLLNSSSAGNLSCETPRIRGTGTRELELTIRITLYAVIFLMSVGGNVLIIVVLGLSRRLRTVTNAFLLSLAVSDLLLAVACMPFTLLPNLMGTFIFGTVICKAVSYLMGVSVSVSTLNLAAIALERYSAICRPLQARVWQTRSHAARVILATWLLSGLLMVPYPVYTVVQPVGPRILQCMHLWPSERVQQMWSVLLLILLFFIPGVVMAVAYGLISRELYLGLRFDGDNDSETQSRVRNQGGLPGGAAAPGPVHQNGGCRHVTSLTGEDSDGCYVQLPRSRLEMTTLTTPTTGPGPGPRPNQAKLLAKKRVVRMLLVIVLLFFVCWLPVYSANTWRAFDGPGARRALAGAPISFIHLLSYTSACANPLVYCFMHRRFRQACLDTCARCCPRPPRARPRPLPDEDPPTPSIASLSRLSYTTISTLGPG
Method in brief: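 Bound radioactivity was gamma-counted after rapid GF/B filtration and cold 50 mM Tris-HCl (pH 7.4) washes. The tissue was cerebral cortex from male CD1 mice, prepared as twice-centrifuged membranes in pH 7.2 HEPES/NaCl/KCl/MgCl2/EDTA buffer with bacitracin at 20 mg/ml original wet weight.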

| Kb (gastrin receptor) [nM] | Ki (CCKA receptor) [nM] | Ki (CCKB receptor) [nM] | SMILES |
| --- | --- | --- | --- |
| 3.24 | 126 | 2.88 | Cc1cc(C)c(-c2nc(C(=O)Nc3ccc(C)c(C(=O)O)c3)c(CCC34CC5CC(CC(C5)C3)C4)[nH]2)c(C)c1 [Example 155, 5-{[5-(2-Adamantan-1-yl-ethyl)-2-(2,4,6-trimethyl-phenyl)-1H-imidazole-4-carbonyl]-amino}-2-methyl-benzoic Acid] |
| 0.891 | 251 | 3.8 | Cc1ccc(NC(=O)c2[nH]c(C3(C)CCCCC3)nc2CCC23CC4CC(CC(C4)C2)C3)cc1C(=O)O [Example 200, 5-{[5-(2-Adamantan-1-yl-ethyl)-2-(1-methyl-cyclohexyl)-1H-imidazole-4-carbonyl}-amino)-2-methyl-benzoic Acid] |
| 0.871 | 501 | 12.6 | O=C(O)c1cccc(NC(=O)c2nc(C3CCCCC3)[nH]c2COC23CC4CC(CC(C4)C2)C3)c1 [Example 216, 3-{[5-(Adamantan-1-yloxymethyl)-2-cyclohexyl-1H-imidazole-4-carbonyl]-amino}-benzoic Acid] |
